Data taken from paper PMC12267471, “Discovery of natural scaffolds as HER2 inhibitors for breast cancer: virtual screening, molecular dynamics, and biological characterization with selectivity profiling” (Scientific Reports, 2025).
One block for each compound: values may come before it.

Assays:
HER2 kinase = target: T1, HER2 kinase (Homo sapiens, UniProt P04626); assay: Z'-LYTE Kinase Assay-Tyr6 Peptide biochemical HER2 kinase assay; conditions: for IC50: Tyr6 peptide substrate, read-out: IC50, inhibition of ATP-induced HER2 phosphorylation
T1 construct: HER2 purified kinase domain (amino acids 676–1255); purchased Thermo Fischer Scientific PV3590
Description: The Z’-LYTE™ Kinase Assay-Tyr6 Peptide kit (Thermo Fischer Scientific™, Madison, WI, USA) was employed to evaluate the potential of selected natural products to suppress the catalytic activity of HER2 kinase. The assay adopts a Fluorescence Resonance Energy Transfer (FRET) based method in a cell-free coupled-enzyme format with no use of antibodies. The assay method mainly relies on the difference in sensitivity of phosphorylated and non-phosphorylated peptides to proteolytic cleavage. This method is a ratio metric method that calculates the Emission Ratio of donor emission divided by acceptor emission after excitation of the donor fluorophore at 400 nm. In this assay, 20 µL/well reactions containing kinase buffer, 200 µM ATP, 4µM Z’-LYTE Tyr6 Peptide substrate, 2500 ng/mL HER2 kinase, and drugs of interest functioning as inhibitors were set up in 96-well plates. Each well received 10 µL of site-specific protease development solution after one hour of room temperature incubation. The incubation continued for a full hour. Following process termination, the kinase inhibitory activity and/or peptide substrate cleavage status were assessed using a plate reader (BioTek FLx800™) to measure the ratio of fluorescence signal at 445 nm (coumarin)/520 nm (fluorescein).
The IC50 value for each natural product was computed using XLfit® 4.1 software (ID Business Solutions Inc. (IDBS), Emeryville CA), applying non-linear regression of log concentration against the percentage of HER2 inhibition.
Utilizing the Z’-LYTE™ Kinase Assay-Tyr6 Peptide kit as a cell-free system for evaluating the inhibitory activity of HER2, the five natural products were evaluated for their capacity to inhibit HER2 phosphorylation. Since its kinase catalysis is necessary for all HER2-mediated activities, we attempted at this initial stage to validate the HER2 inhibitory ability of the five in silico hits directly on the HER2 purified kinase domain (amino acids 676–1255), that was in vitro phosphorylated to attain the maximum level of intrinsic kinase activity. In this assay, the substrate was Z’-LYTE™ Tyr6 peptide; thus, the changes in its phosphorylation can directly correlate with the HER2 kinase activity. In the meantime, tyrphostin AG 1478 was used as a positive control to ensure the validity of the assay. Lapatinib (Tykerb®) was included as a second positive control to benchmark virtual hits’ performance against clinically approved standards.

BT-474 cells [1] = assay: MTT proliferation assay, BT-474; assay type: cell-based, human
SKBR3 cells [2] = assay: MTT proliferation assay, SKBR3; assay type: cell-based, human
MCF10A cells = assay: MTT cytotoxicity assay, non-tumorigenic MCF10A; assay type: cell-based, human
BT-474 cells [3] = assay: Wound healing assay, BT-474; assay type: cell-based; conditions: Homo sapiens
Method: (§1) In a sterile flat-bottom 24-well plate, SKBR3 and BT-474 breast cancer cells were plated at a density of 1 × 10^5 cells/well. […] Wounds were then inflicted across each cell monolayer using a sterile 200 µL pipette tip. Media was aspirated, and cells were washed twice with PBS to remove floating cells and cell debris. Fresh serum-free media was placed up against the well wall to cover the bottom of the well and prevent further cell detachment. Incubation of cells was resumed for five hours at 37 °C in a humidified CO2 incubator. Subsequently, the media were substituted with fresh ones containing various doses of liquiritin, oroxin B, or DMSO as a vehicle control (3 replicates/group) along with EGF (100 ng/mL) as a scattering factor. Wound closure was microscopically monitored in vehicle-treated control wells, and the time frame for wound closure was determined to be 72 h. Before the closure of wounds in the vehicle-treated control wells, the media were removed, cells were washed with PBS and completely fixed using cold methanol for 20 min at 4 °C. An inverted VistaVision microscope was used to take pictures of the wounds monitored at zero and 72 h with a VistaVision Still camera (VWR, Radnor, PA).
(§2) Results were expressed as a percentage of cell migration according to the following Equation[16]: [drawing 2]
(§3) Where Tt is the wound thickness in treatment wells, TDMSO is the thickness of the wound in control wells treated by DMSO, and Tº is the thickness of the wound at zero time. Wound thickness was calculated in three or more randomly selected fields per treatment group.

SKBR3 cells [4] = assay: Wound healing assay, SKBR3; assay type: cell-based; conditions: Homo sapiens
Method: as §1, §2, §3

EGFR = test system: EGFR; parameters: method as in earlier work; conditions: Table S1; cited from earlier work
ERBB2 = test system: ERBB2; parameters: method as in earlier work; conditions: Table S1; cited from earlier work
ERBB4 = test system: ERBB4; parameters: method as in earlier work; conditions: Table S1; cited from earlier work
[5] = Homo sapiens, BT-474, MTT, 48 h (Table S8), read-out: Cell growth inhibition IC50
[6] = Homo sapiens, SK-BR-3, SKBR3, MTT, 48 h (Table S8), read-out: Cell growth inhibition IC50
[7] = Homo sapiens, BT-474, Table S9, read-out: IC50

T1 sequence (P04626 676-1255): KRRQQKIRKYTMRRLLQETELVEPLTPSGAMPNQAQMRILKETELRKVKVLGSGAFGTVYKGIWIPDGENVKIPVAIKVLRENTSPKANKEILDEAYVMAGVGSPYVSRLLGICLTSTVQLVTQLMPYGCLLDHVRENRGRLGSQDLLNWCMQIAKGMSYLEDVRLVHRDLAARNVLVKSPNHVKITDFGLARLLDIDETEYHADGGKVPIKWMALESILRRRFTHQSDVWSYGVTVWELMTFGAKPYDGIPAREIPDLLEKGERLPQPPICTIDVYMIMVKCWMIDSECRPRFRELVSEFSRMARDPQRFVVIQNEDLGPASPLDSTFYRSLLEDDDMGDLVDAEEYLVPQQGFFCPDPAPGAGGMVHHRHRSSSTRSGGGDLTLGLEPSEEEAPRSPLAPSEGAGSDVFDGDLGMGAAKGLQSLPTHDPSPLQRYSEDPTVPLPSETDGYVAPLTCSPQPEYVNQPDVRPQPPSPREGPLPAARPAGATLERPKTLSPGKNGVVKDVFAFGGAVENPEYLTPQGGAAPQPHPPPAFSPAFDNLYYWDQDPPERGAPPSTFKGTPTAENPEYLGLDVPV

- IC50 (HER2 kinase; cell-free Z'-LYTE): 0.0377 µM
- IC50 (BT-474 cells [1]; [5]): 5.9 µM
- IC50 (SKBR3 cells [2]; [6]): 11 µM
Structure (SMILES): OC[C@H]1O[C@@H](Oc2cc(O)cc(/C=C/c3ccc(O[C@@H]4O[C@H](CO)[C@@H](O)[C@H](O)[C@H]4O)cc3O)c2)[C@H](O)[C@@H](O)[C@@H]1O [Mulberroside A]

Structure (SMILES): O=c1cc(-c2ccccc2)oc2cc(O[C@@H]3O[C@H](CO[C@@H]4O[C@H](CO)[C@@H](O)[C@H](O)[C@H]4O)[C@@H](O)[C@H](O)[C@H]3O)c(O)c(O)c12 [Oroxin B]
- IC50 (HER2 kinase; cell-free Z'-LYTE): 0.0121 µM
- IC50 (BT-474 cells [1]; [5]): 6.9 µM
- IC50 (BT-474 cells [1]; [7]): 6.9 ± 0.7 µM
- IC50 (SKBR3 cells [2]; [6]): 11.9 µM
- IC50 (SKBR3 cells [2]; Homo sapiens, SK-BR-3, SKBR3, Table S9, read-out: IC50): 11.9 ± 0.8 µM
- IC50 (MCF10A cells; Homo sapiens, MCF-10A, MCF10A, MTT, 24 h): 53 ± 2.1 µM
- selectivity index (SI) (MCF10A cells; IC50 MCF10A / IC50 BT-474): 7.7
- selectivity index (SI) (MCF10A cells; IC50 MCF10A / IC50 SKBR3): 4.5
- IC50 (BT-474 cells [3]; BT-474, read-out: IC50, cell migration): > 20 µM
- inhibition at 3 µM (BT-474 cells [3]; BT-474, 3 µM, 72 h, read-out: inhibition of cell migration): 18.9%
- inhibition at 7 µM (BT-474 cells [3]; BT-474, 7 µM, 72 h, read-out: inhibition of cell migration): 26.5%
- inhibition at 10 µM (BT-474 cells [3]; BT-474, 10 µM, 72 h, read-out: inhibition of cell migration): 29.5%
- inhibition at 20 µM (BT-474 cells [3]; BT-474, 20 µM, 72 h, read-out: inhibition of cell migration): 38.6%
- IC50 (SKBR3 cells [4]; SK-BR-3, read-out: IC50, cell migration): > 36 µM
- inhibition at 6 µM (SKBR3 cells [4]; SK-BR-3, SKBR3, 6 µM, 72 h, read-out: inhibition of cell migration): 23.5%
- inhibition at 12 µM (SKBR3 cells [4]; SK-BR-3, SKBR3, 12 µM, 72 h, read-out: inhibition of cell migration): 26.5%
- inhibition at 18 µM (SKBR3 cells [4]; SK-BR-3, SKBR3, 18 µM, 72 h, read-out: inhibition of cell migration): 31.1%
- inhibition at 36 µM (SKBR3 cells [4]; SK-BR-3, SKBR3, 36 µM, 72 h, read-out: inhibition of cell migration): 34.8%

- inhibition at 0.015 µM (HER2 kinase; at 15 nM): 54%
- inhibition at 0.03 µM (HER2 kinase; at 30 nM): 75%
- IC50 (BT-474 cells [1]; [5]): 0.117 µM
- IC50 (BT-474 cells [1]; Homo sapiens, BT-474, MTT, 48 h, read-out: IC50): 0.118 µM
- IC50 (SKBR3 cells [2]; Homo sapiens, SK-BR-3, SKBR3, MTT, 48 h, read-out: IC50): 0.153 µM
Structure (SMILES): CS(=O)(=O)CCNCc1ccc(-c2ccc3ncnc(Nc4ccc(OCc5cccc(F)c5)c(Cl)c4)c3c2)o1 [Lapatinib, reference compound]

- IC50 (HER2 kinase; cell-free Z'-LYTE): 0.0365 µM
- IC50 (BT-474 cells [1]; BT-474, MTT, 48 h (Table S8), read-out: Cell growth inhibition IC50): 6 µM
- IC50 (SKBR3 cells [2]; SKBR3, MTT, 48 h (Table S8), read-out: Cell growth inhibition IC50): 12.7 µM
Structure (SMILES): C[C@@H]1O[C@@H](OC[C@H]2O[C@@H](Oc3cc(O)c4c(=O)cc(-c5ccc(O)cc5)oc4c3)[C@H](O[C@@H]3O[C@@H](C)[C@H](O)[C@@H](O)[C@H]3O)[C@@H](O)[C@@H]2O)[C@H](O)[C@H](O)[C@H]1O [Ligustroflavone]

Structure (SMILES): COc1cc2ncnc(Nc3ccc(F)c(Cl)c3)c2cc1NC(=O)/C=C/CN1CCCCC1 [Dacomitinib]
- IC50 (EGFR): 0.006 µM

Structure (SMILES): CN[C@@H]1C[C@H]2O[C@@](C)([C@@H]1OC)n1c3ccccc3c3c4c(c5c6ccccc6n2c5c31)C(=O)NC4 [Staurosporine, reference compound]
- IC50 (BT-474 cells [1]; [5]): 3.2 µM
- IC50 (BT-474 cells [1]; [7]): 3.2 ± 0.3 µM

Structure (SMILES): OC[C@H]1O[C@@H](Oc2cc3c(O[C@@H]4O[C@H](CO)[C@@H](O)[C@H](O)[C@H]4O)cc(O)cc3[o+]c2-c2cc(O)c(O)c(O)c2)[C@H](O)[C@@H](O)[C@@H]1O [Delphin, Delphinidin-3,5-O-diglucoside]
- suppression of HER2 phosphorylation (HER2 kinase; cell-free Z'-LYTE): no discernible suppression
